ChEMBL document CHEMBL1201862, “PubChem BioAssay data set” (2004)
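Exposure lasted 48 hours, with cells grown in 96-well plates and compounds tested at five concentrations. GI50 = concentration required for 50% inhibition of growth.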 The source made the active and inactive calls. No stated cut-off is given here; in the data, active = GI50 up to about 1.1 µM and inactive = higher.

Key:
Assay in all cases: NCI anticancer screen, dose series, 48 h
SW-620 = system: SW-620
HCC 2998 = system: HCC 2998
SNB-75 = system: SNB-75
786-0 = system: 786-0
MDA-MB-435 = system: MDA-MB-435
T47D = system: T47D
HCT-15 = system: HCT-15
ACHN = system: ACHN
M14 = system: M14
COLO 205 = system: COLO 205
A549 = system: A549
PC-3 = system: PC-3
TK-10 = system: TK-10
NCI-H460 = system: NCI-H460
HL-60 = system: HL-60
UO-31 = system: UO-31
SNB-19 = system: SNB-19
U-251 = system: U-251
NCI-H23 = system: NCI-H23
OVCAR-8 = system: OVCAR-8

| SMILES | GI50 (SW-620) | GI50 (HCC 2998) | GI50 (SNB-75) | GI50 (786-0) | GI50 (MDA-MB-435) | GI50 (T47D) | GI50 (HCT-15) [µM] | GI50 (ACHN) | GI50 (M14) | GI50 (COLO 205) | GI50 (A549) | GI50 (PC-3) | GI50 (TK-10) | GI50 (NCI-H460) | GI50 (HL-60) | GI50 (UO-31) | GI50 (SNB-19) | GI50 (U-251) | GI50 (NCI-H23) | GI50 (OVCAR-8) |
| --- | --- | --- | --- | --- | --- | --- | --- | --- | --- | --- | --- | --- | --- | --- | --- | --- | --- | --- | --- | --- |
| CC(C)(CN1CCCCC1)C(/C=C/c1ccc(Cl)c(Cl)c1)=N\NC(=O)N/N=C(/C=C/c1ccc(Cl)c(Cl)c1)C(C)(C)CN1CCCCC1 | 1.62 µM (inactive) | 1.69 µM (inactive) | 1.55 µM (inactive) | 1.48 µM (inactive) | 1.31 µM (inactive) | 2.05 µM (inactive) | 1.08 | 1.89 µM (inactive) | 0.385 µM (active) | 1.64 µM (inactive) | 1.86 µM (inactive) | > 10 µM (inactive) | 1.66 µM (inactive) | 1.35 µM (inactive) | 1.52 µM (inactive) | 4.14 µM (inactive) | 1.69 µM (inactive) | 1.69 µM (inactive) | 1.93 µM (inactive) | 1.87 µM (inactive) |
| CC(C)(C)C#CI1OC(=O)c2ccccc21 | 3.44 µM (inactive) | 9.53 µM (inactive) | 7.28 µM (inactive) | 3.37 µM (inactive) | 3.72 µM (inactive) | 3.68 µM (inactive) | 3.38 | 2.9 µM (inactive) | 3.31 µM (inactive) | 2.28 µM (inactive) | 8.49 µM (inactive) | 6.31 µM (inactive) | 3.86 µM (inactive) | 4.62 µM (inactive) | 0.513 µM (active) | 4.41 µM (inactive) | 9.27 µM (inactive) | 4.84 µM (inactive) | 3.48 µM (inactive) | 4.36 µM (inactive) |
| COC(=O)[C@@H](NC(=O)N(Cc1ccccc1)C[C@H](CC(C)C)NC(=O)[C@@H](NC(=O)OC(C)(C)C)C(C)C)C(C)C | > 100 µM (inactive) | > 100 µM (inactive) | 33.7 µM (inactive) | > 100 µM (inactive) | > 100 µM (inactive) | > 100 µM (inactive) | > 100 | > 100 µM (inactive) | > 100 µM (inactive) | > 100 µM (inactive) | > 100 µM (inactive) | > 100 µM (inactive) | > 100 µM (inactive) | > 100 µM (inactive) | > 100 µM (inactive) | > 100 µM (inactive) | > 100 µM (inactive) | > 100 µM (inactive) | > 100 µM (inactive) | > 100 µM (inactive) |
| COc1ccc(CC2c3cc(OC)c(OC)c(OC)c3CC[N+]2(C)C)cc1Oc1ccc(CC2c3cc4c(c(OC)c3CC[N+]2(C)C)OCO4)cc1 (stereo not given) | > 100 µM (inactive) | > 100 µM (inactive) | 91.6 µM (inactive) | > 100 µM (inactive) | > 100 µM (inactive) | > 100 µM (inactive) | > 100 | > 100 µM (inactive) | > 100 µM (inactive) | > 100 µM (inactive) | 34.4 µM (inactive) | > 100 µM (inactive) | > 100 µM (inactive) | > 100 µM (inactive) | > 100 µM (inactive) | > 100 µM (inactive) | > 100 µM (inactive) | > 100 µM (inactive) | > 100 µM (inactive) | > 100 µM (inactive) |
| CC1=NN(c2nc(N)nc(CN3CCOCC3)n2)C(C)(C)C1 | > 100 µM (inactive) | > 100 µM (inactive) | > 100 µM (inactive) | 15.2 µM (inactive) | > 100 µM (inactive) | > 100 µM (inactive) | > 100 | 31.8 µM (inactive) | > 100 µM (inactive) | 60.4 µM (inactive) | > 100 µM (inactive) | > 100 µM (inactive) | > 100 µM (inactive) | > 100 µM (inactive) | 15.2 µM (inactive) | 18.1 µM (inactive) | > 100 µM (inactive) | > 100 µM (inactive) | > 100 µM (inactive) | > 100 µM (inactive) |
| OCC1NC(COC2OC(CO)C(O)C(O)C2O)C(O)C(O)C1O (stereo not given) | > 100 µM (inactive) | > 100 µM (inactive) | > 100 µM (inactive) | > 100 µM (inactive) | > 100 µM (inactive) | > 100 µM (inactive) | > 100 | > 100 µM (inactive) | > 100 µM (inactive) | > 100 µM (inactive) | > 100 µM (inactive) | > 100 µM (inactive) | > 100 µM (inactive) | > 100 µM (inactive) | > 100 µM (inactive) | > 100 µM (inactive) | > 100 µM (inactive) | > 100 µM (inactive) | > 100 µM (inactive) | > 100 µM (inactive) |
| CCC(C)OC(=O)/C(Br)=C1/OC(=O)c2ccccc2-c2ccccc21 (stereo not given) | 18.1 µM (inactive) | 16.9 µM (inactive) | 31.6 µM (inactive) | 48.6 µM (inactive) | 26.9 µM (inactive) | 58.2 µM (inactive) | 18 | 40.1 µM (inactive) | 32.1 µM (inactive) | 18.3 µM (inactive) | 36.6 µM (inactive) | 31.8 µM (inactive) | 19.4 µM (inactive) | 26.2 µM (inactive) | > 100 µM (inactive) | 25.2 µM (inactive) | 49.5 µM (inactive) | > 10 µM (inactive) | 50 µM (inactive) | 37.6 µM (inactive) |
| Cc1cc(=O)oc2c(CNC(CC(C)C)C(=O)O)c(O)ccc12 (stereo not given) | > 100 µM (inactive) | > 100 µM (inactive) | 39.7 µM (inactive) | > 100 µM (inactive) | > 100 µM (inactive) | > 100 µM (inactive) | > 100 | > 100 µM (inactive) | > 100 µM (inactive) | > 100 µM (inactive) | > 100 µM (inactive) | > 100 µM (inactive) | > 100 µM (inactive) | > 100 µM (inactive) | > 100 µM (inactive) | > 100 µM (inactive) | > 100 µM (inactive) | > 100 µM (inactive) | > 100 µM (inactive) | > 100 µM (inactive) |
| O=C(CC(C(=O)c1cccs1)c1cccs1)c1ccsc1 (stereo not given) | 44.1 µM (inactive) | 57.4 µM (inactive) | 40.2 µM (inactive) | 50.5 µM (inactive) | 20.2 µM (inactive) | 39.6 µM (inactive) | 38.3 | 67 µM (inactive) | 38.2 µM (inactive) | 45.3 µM (inactive) | 43.3 µM (inactive) | 35.8 µM (inactive) | > 100 µM (inactive) | 42.4 µM (inactive) | 29 µM (inactive) | 43.5 µM (inactive) | 75.2 µM (inactive) | 41.6 µM (inactive) | 35.6 µM (inactive) | 59.2 µM (inactive) |
| C=CCN1C(=O)/C(=C/c2ccc(C)cc2)NC1=S | > 100 µM (inactive) | > 100 µM (inactive) | > 100 µM (inactive) | > 100 µM (inactive) | 76.6 µM (inactive) | 67.1 µM (inactive) | > 100 | > 100 µM (inactive) | 87.7 µM (inactive) | 63.5 µM (inactive) | 76.4 µM (inactive) | > 100 µM (inactive) | > 100 µM (inactive) | > 100 µM (inactive) | 20 µM (inactive) | > 100 µM (inactive) | > 100 µM (inactive) | > 100 µM (inactive) | 57.5 µM (inactive) | > 100 µM (inactive) |
| CN(C)c1ccc(/C=C(\NC(=O)c2ccccc2)C(=O)Nc2ccccc2C(=O)NCc2ccccc2)cc1 | > 100 µM (inactive) | > 100 µM (inactive) | 0.0955 µM (active) | > 100 µM (inactive) | > 100 µM (inactive) | > 100 µM (inactive) | > 100 | > 100 µM (inactive) | 77.6 µM (inactive) | > 100 µM (inactive) | > 100 µM (inactive) | > 100 µM (inactive) | > 100 µM (inactive) | > 100 µM (inactive) | 40.6 µM (inactive) | > 100 µM (inactive) | 85.5 µM (inactive) | 46.8 µM (inactive) | > 100 µM (inactive) | 59.4 µM (inactive) |
| COc1cccc(C2SCC(=O)N2c2ccc(-n3c(-c4ccccc4)nc4ccccc4c3=O)cc2)c1OC (stereo not given) | > 100 µM (inactive) | > 100 µM (inactive) | > 60.5 µM (inactive) | > 100 µM (inactive) | > 100 µM (inactive) | 31.6 µM (inactive) | > 100 | > 100 µM (inactive) | > 100 µM (inactive) | > 100 µM (inactive) | > 100 µM (inactive) | > 100 µM (inactive) | > 100 µM (inactive) | > 100 µM (inactive) | > 100 µM (inactive) | > 43.7 µM (inactive) | > 100 µM (inactive) | > 100 µM (inactive) | > 100 µM (inactive) | > 100 µM (inactive) |
| O=C(O)CN1CCNCCN(CC(=O)O)CCNCC1 | 4.2 µM (inactive) | > 82.2 µM (inactive) | > 21.5 µM (inactive) | > 42.2 µM (inactive) | 33 µM (inactive) | > 48.2 µM (inactive) | 9.29 | > 100 µM (inactive) | > 100 µM (inactive) | 6.64 µM (inactive) | 5.57 µM (inactive) | 19.9 µM (inactive) | > 100 µM (inactive) | 8.49 µM (inactive) | 3.41 µM (inactive) | > 100 µM (inactive) | > 100 µM (inactive) | 9.06 µM (inactive) | 44.4 µM (inactive) | 42.3 µM (inactive) |
| CN(C)CCN(C)c1ccc2c(=O)n(CCN(C)C)c(=O)n3c4ccccc4c(=O)c1c23 | 0.119 µM (active) | 0.454 µM (active) | 0.316 µM (active) | 0.108 µM (active) | 1.26 µM (inactive) | 1.09 µM (active) | 0.179 | 0.0436 µM (active) | 0.986 µM (active) | 0.647 µM (active) | 0.0353 µM (active) | 0.973 µM (active) | 1.51 µM (inactive) | 0.029 µM (active) | 0.0627 µM (active) | 0.516 µM (active) | 0.518 µM (active) | 0.489 µM (active) | 0.54 µM (active) | 0.582 µM (active) |
